Test results from PubChem BioAssay AID248 (DTP/NCI, 2004).
Toxic doses and inconclusive results are not listed. No stated cut-off is given here; in the data, active means T/C of 150% or more; inactive means T/C below 125%.

Test system: L1210 leukemia ip in BDF1 mice, survival T/C
Assay: NCI In Vivo Anticancer Drug Screen. Data for tumor model L1210 Leukemia (intraperitoneal) in B6D2F1 (BDF1) mice
Details: endpoint: mean survival time, higher = longer survival
In short: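 Survival endpoint. Drug-treated group vs vehicle group, expressed as T divided by C. Tumor passaged by transplantation.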

[1] = dose: 50.0 mg/kg/injection, schedule: Q01DX009 (ip), vehicle: saline with Tween-80
[2] = dose: 100.0 mg/kg/injection, schedule: Q04DX003 (ip), vehicle: Klucel (hydroxypropylcellulose) (HPC)
[3] = dose: 200.0 mg/kg/injection, schedule: Q01DX009 (ip), vehicle: saline with Tween-80
[4] = dose: 200.0 mg/kg/injection, schedule: Q04DX003 (ip), vehicle: Klucel (hydroxypropylcellulose) (HPC)
[5] = dose: 100.0 mg/kg/injection, schedule: Q01DX009 (ip), vehicle: saline with Tween-80
[6] = dose: 100.0 mg/kg/injection, schedule: Q04DX003 (ip), vehicle: saline with Tween-80
[7] = dose: 200.0 mg/kg/injection, schedule: Q04DX003 (ip), vehicle: saline with Tween-80
[8] = dose: 400.0 mg/kg/injection, schedule: Q04DX003 (ip), vehicle: saline with Tween-80
[9] = dose: 100.0 mg/kg/injection, schedule: Q01DX001 (ip), vehicle: saline
[10] = dose: 200.0 mg/kg/injection, schedule: Q01DX001 (ip), vehicle: saline
[11] = dose: 400.0 mg/kg/injection, schedule: Q01DX001 (ip), vehicle: saline
[12] = dose: 50.0 mg/kg/injection, schedule: Q01DX001 (ip), vehicle: saline
[13] = dose: 100.0 mg/kg/injection, schedule: Q01DX009 (ip), vehicle: saline
[14] = dose: 200.0 mg/kg/injection, schedule: Q01DX009 (ip), vehicle: saline
[15] = dose: 400.0 mg/kg/injection, schedule: Q01DX009 (ip), vehicle: saline
[16] = dose: 100.0 mg/kg/injection, schedule: Q04DX002 (ip), vehicle: saline with Tween-80
[17] = dose: 200.0 mg/kg/injection, schedule: Q04DX002 (ip), vehicle: saline with Tween-80
[18] = dose: 400.0 mg/kg/injection, schedule: Q04DX002 (ip), vehicle: saline with Tween-80

Measured: T/C

COc1ccccc1NC(=O)OCc1ccco1
inactive: dose: 100.0 mg/kg/injection, schedule: Q01DX009 (ip), vehicle: other 106 % of control | dose: 200.0 mg/kg/injection, schedule: Q01DX009 (ip), vehicle: other 101 % of control | dose: 400.0 mg/kg/injection, schedule: Q01DX009 (ip), vehicle: other 104 % of control

CCOC(=O)CC1NCCC2C1CCC(OC)C2OC (stereo unspecified)
inactive: [1] 106 % of control | [2] 98 % of control | [3] 95 % of control | [4] 104 % of control

Cc1ccc([I+]c2ccc(C)cc2C)c(C)c1
inactive: dose: 0.25 mg/kg/injection, schedule: Q01DX015 (ip), vehicle: saline 96 % of control | dose: 0.5 mg/kg/injection, schedule: Q01DX015 (ip), vehicle: saline 96 % of control | dose: 1.0 mg/kg/injection, schedule: Q01DX015 (ip), vehicle: saline 97 % of control | dose: 1.56 mg/kg/injection, schedule: Q01DX009 (ip), vehicle: saline with Tween-80 112 % of control | dose: 1.56 mg/kg/injection, schedule: Q04DX003 (ip), vehicle: saline 95 % of control | dose: 2.0 mg/kg/injection, schedule: Q01DX015 (ip), vehicle: saline 97 % of control | dose: 3.12 mg/kg/injection, schedule: Q01DX009 (ip), vehicle: saline with Tween-80 119 % of control | dose: 3.12 mg/kg/injection, schedule: Q04DX003 (ip), vehicle: saline 91 % of control | dose: 6.25 mg/kg/injection, schedule: Q01DX009 (ip), vehicle: saline with Tween-80 110 % of control | dose: 6.25 mg/kg/injection, schedule: Q04DX003 (ip), vehicle: saline 95 % of control | dose: 12.5 mg/kg/injection, schedule: Q01DX001 (ip), vehicle: saline 94 % of control | dose: 25.0 mg/kg/injection, schedule: Q01DX001 (ip), vehicle: saline 100 % of control

O=C(O)CC(NC(=O)OCc1ccccc1)C(=O)OCc1ccccc1 (stereo unspecified)
inactive: [5] 107 % of control | [6] 104 % of control | [3] 93 % of control | [7] 107 % of control | dose: 400.0 mg/kg/injection, schedule: Q01DX009 (ip), vehicle: saline with Tween-80 91 % of control | [8] 96 % of control

O=C1c2ccccc2C(=O)N1CNc1ccc2c(c1)OCO2
inactive: [1] 108 % of control | [5] 97 % of control | [3] 90 % of control

O=C(Cl)c1ccccc1Sc1ccccc1
inactive: dose: 25.0 mg/kg/injection, schedule: Q01DX009 (ip), vehicle: saline with Tween-80 106 % of control | [1] 97 % of control | [5] 92 % of control

CCSc1ncnc2c1ncn2C1OC(CO)C(O)C1O (stereo unspecified)
inactive: dose: 132.0 mg/kg/injection, schedule: Q04DX003 (ip), vehicle: saline with Tween-80 116 % of control | [7] 124 % of control

Cc1cc(=O)n2c(n1)Nc1ccccc1C2
inactive: [9] 87 % of control | [10] 93 % of control | [11] 87 % of control

CCOC(=O)C1CN(C)C(=O)C1=O (stereo unspecified)
inactive: [12] 100 % of control | [9] 93 % of control | [10] 87 % of control | [11] 114 % of control

NC(=O)c1ccc[n+](CC(=O)Nc2ccc(Cl)cc2)c1
inactive: [6] 101 % of control | [7] 101 % of control | [8] 95 % of control

CCOC(=O)c1ccc(NC(=O)Oc2cc(C)c(Cl)c(C)c2)cc1
inactive: dose: 100.0 mg/kg/injection, schedule: Q01DX009 (ip), vehicle: Klucel (hydroxypropylcellulose) (HPC) 95 % of control | dose: 200.0 mg/kg/injection, schedule: Q01DX009 (ip), vehicle: Klucel (hydroxypropylcellulose) (HPC) 90 % of control | dose: 400.0 mg/kg/injection, schedule: Q01DX009 (ip), vehicle: Klucel (hydroxypropylcellulose) (HPC) 96 % of control

CCCCCCCCNCCCCCCCC
inactive: dose: 4.62 mg/kg/injection, schedule: Q01DX009 (ip), vehicle: gum acacia 101 % of control | dose: 5.0 mg/kg/injection, schedule: Q01DX001 (ip), vehicle: other 95 % of control | dose: 9.25 mg/kg/injection, schedule: Q01DX009 (ip), vehicle: gum acacia 94 % of control | dose: 10.0 mg/kg/injection, schedule: Q01DX001 (ip), vehicle: other 95 % of control | dose: 18.5 mg/kg/injection, schedule: Q01DX009 (ip), vehicle: gum acacia 95 % of control | dose: 20.0 mg/kg/injection, schedule: Q01DX001 (ip), vehicle: other 90 % of control | dose: 37.0 mg/kg/injection, schedule: Q01DX009 (ip), vehicle: gum acacia 97 % of control | dose: 40.0 mg/kg/injection, schedule: Q01DX001 (ip), vehicle: other 93 % of control | dose: 80.0 mg/kg/injection, schedule: Q01DX001 (ip), vehicle: other 90 % of control | dose: 100.0 mg/kg/injection, schedule: Q01DX001 (ip), vehicle: other 100 % of control

Clc1nn2cnnc2c2ccccc12
inactive: dose: 20.0 mg/kg/injection, schedule: Q04DX003 (ip), vehicle: saline 110 % of control

Cc1ccc(S(=O)(=O)OCC(=O)O)cc1
inactive: [6] 95 % of control | [7] 95 % of control | [8] 100 % of control

CCc1n[nH]c(C(N)=O)c1O
inactive: dose: 100.0 mg/kg/injection, schedule: Q01DX001 (ip), vehicle: gum acacia 103 % of control | [13] 108 % of control | dose: 200.0 mg/kg/injection, schedule: Q01DX001 (ip), vehicle: gum acacia 101 % of control | [14] 104 % of control | dose: 400.0 mg/kg/injection, schedule: Q01DX001 (ip), vehicle: gum acacia 106 % of control | [15] 100 % of control

OCn1nnc2ccccc21
inactive: [16] 103 % of control | [17] 90 % of control | [18] 106 % of control

O=C(Nc1ccc(Cl)c(Cl)c1)c1ccc(Cl)cc1
inactive: [16] 103 % of control | [17] 95 % of control | [18] 95 % of control

COC(F)(F)C(Cl)Cl
inactive: [9] 95 % of control | [10] 101 % of control | [11] 95 % of control

Oc1c(O)c(Cl)c(Cl)c(Cl)c1Cl
inactive: dose: 12.5 mg/kg/injection, schedule: Q04DX003 (ip), vehicle: saline 97 % of control | dose: 25.0 mg/kg/injection, schedule: Q04DX003 (ip), vehicle: saline 95 % of control | dose: 50.0 mg/kg/injection, schedule: Q04DX003 (ip), vehicle: saline 98 % of control

Cc1cccc(CO)n1
inactive: [13] 106 % of control | dose: 100.0 mg/kg/injection, schedule: Q04DX003 (ip), vehicle: saline 110 % of control | [14] 108 % of control | dose: 200.0 mg/kg/injection, schedule: Q04DX003 (ip), vehicle: saline 110 % of control | [15] 103 % of control | dose: 400.0 mg/kg/injection, schedule: Q04DX003 (ip), vehicle: saline 103 % of control

C=C=CC(C=O)(CC)CCCC (stereo unspecified)
inactive: [1] 91 % of control | [5] 94 % of control | [3] 98 % of control

Cc1cccc(-c2nc(N)nc(N)n2)c1C
inactive: [1] 97 % of control | [5] 101 % of control | [3] 101 % of control

O=C(Oc1ccccc1)Oc1c(Cl)cc([N+](=O)[O-])cc1[N+](=O)[O-]
inactive: [2] 100 % of control | [4] 100 % of control | dose: 400.0 mg/kg/injection, schedule: Q04DX003 (ip), vehicle: Klucel (hydroxypropylcellulose) (HPC) 93 % of control

CC1(C)CC(O)CC(O)C1 (stereo unspecified)
inactive: dose: 50.0 mg/kg/injection, schedule: Q01DX001 (ip), vehicle: carboxymethylcellulose (CMC) 104 % of control | [12] 98 % of control | dose: 100.0 mg/kg/injection, schedule: Q01DX001 (ip), vehicle: carboxymethylcellulose (CMC) 101 % of control | [9] 120 % of control | dose: 200.0 mg/kg/injection, schedule: Q01DX001 (ip), vehicle: carboxymethylcellulose (CMC) 106 % of control | [10] 104 % of control | dose: 400.0 mg/kg/injection, schedule: Q01DX001 (ip), vehicle: carboxymethylcellulose (CMC) 98 % of control | [11] 95 % of control
